This note sets out measurements from patent US11542225B2, “Lipids for use in lipid nanoparticle formulations” (ACUITAS THERAPEUTICS, INC., priority 2017, dated 2023).

Where two headings read alike, the source gives them in different places.

A short description of data set [1]: Determination of pKa of formulated lipids (TNS fluorescence assay in lipid nanoparticles). Format: physicochemical. The text has this:
As described elsewhere, the pKa of formulated lipids was correlated with the effectiveness of LNPs for delivery of nucleic acids (see Jayaraman et al, Angewandte Chemie, International Edition (2012), 51(34), 8529-8533; Semple et al, Nature Biotechnology 28, 172-176 (2010)). In some embodiments, the preferred range of pKa was ˜5 to ˜7. […] Lipid nanoparticles comprising compound of structure (I)/DSPC/cholesterol/PEG-lipid (50/10/38.5/1.5 or 47.5:10:40.8:1.7 mol %) in PBS at a concentration of 0.4 mM total lipid were prepared using the in-line process as described in Example 1. TNS was prepared as a 100 μM stock solution in distilled water. Vesicles were diluted to 24 μM lipid in 2 mL of buffered solutions containing 10 mM HEPES, 10 mM MES, 10 mM ammonium acetate, and 130 mM NaCl, where the pH ranged from 2.5 to 11. An aliquot of the TNS solution was added to give a final concentration of 1 μM and following vortex mixing fluorescence intensity was measured at room temperature in a SLM Aminco Series 2 Luminescence Spectrophotometer using excitation and emission wavelengths of 321 nm and 445 nm. A sigmoidal best fit analysis was applied to the fluorescence data and the pKa was measured as the pH giving rise to half-maximal fluorescence intensity.

For data set [2], the system named is luciferase expression in the liver. The data set is described as follows: Luciferase mRNA in vivo evaluation using lipid nanoparticle compositions. Details: species or system mice. The conditions noted are these: novel lipids; values marked * in the 1.0 mg/kg column: dosed at 0.5 mg/kg; tail vein injection, 4 hours after administration.
For data set [3] the test system is unchanged. The data set is described as above. Details: species or system mice. The conditions noted are these: for Liver Luc @ 0.3 mg/kg (ng luc/g liver) / Liver Luc @ 1.0 mg/kg (ng luc/g liver): novel lipids, tail vein injection, 4 hours after administration; for Liver Luc @ 0.3 mg/kg (ng luc/g liver): 0.3 mg mRNA/kg; for Liver Luc @ 1.0 mg/kg (ng luc/g liver): 1.0 mg mRNA/kg. The protocol: A lipid of structure (I), DSPC, cholesterol and PEG-lipid were solubilized in ethanol at a molar ratio of 50:10:38.5:1.5 or 47.5:10:40.8:1.7. Lipid nanoparticles (LNP) were prepared at a total lipid to mRNA weight ratio of approximately 10:1 to 30:1. Briefly, the mRNA was diluted to 0.2 mg/mL in 10 to 50 mM citrate buffer, pH 4. Syringe pumps were used to mix the ethanolic lipid solution with the mRNA aqueous solution at a ratio of about 1:5 to 1:3 (vol/vol) with total flow rates above 15 mL/min. The ethanol was then removed and the external buffer replaced with PBS by dialysis. Finally, the lipid nanoparticles were filtered through a 0.2 μm pore sterile filter.
Studies were performed in 6-8 week old female C57BL/6 mice (Charles River) 8-10 week old CD-1 (Harlan) mice (Charles River) according to guidelines established by an institutional animal cwere committee (ACC) and the Canadian Council on Animal Cwere (CCAC). Varying doses of mRNA-lipid nanoparticle were systemically administered by tail vein injection and animals euthanized at a specific time point (e.g., 4 hours) post-administration. Liver and spleen were collected in pre-weighed tubes, weights determined, immediately snap frozen in liquid nitrogen and stored at −80° C. until processing for analysis.
For liver, approximately 50 mg was dissected for analyses in a 2 mL FastPrep tubes (MP Biomedicals, Solon Ohio). ¼″ ceramic sphere (MP Biomedicals) was added to each tube and 500 μL of Glo Lysis Buffer—GLB (Promega, Madison Wis.) equilibrated to room temperature was added to liver tissue. Liver tissues were homogenized with the FastPrep24 instrument (MP Biomedicals) at 2×6.0 m/s for 15 seconds. Homogenate was incubated at room temperature for 5 minutes prior to a 1:4 dilution in GLB and assessed using SteadyGlo Luciferase assay system (Promega). Specifically, 50 μL of diluted twassue homogenate was reacted with 50 μL of SteadyGlo substrate, shaken for 10 seconds followed by 5 minute incubation and then quantitated using a CentroXS^3 LB 960 luminometer (Berthold Technologies, Germany). The amount of protein assayed was determined by using the BCA protein assay kit (Pierce, Rockford, Ill.). Relative luminescence units (RLU) were then normalized to total μg protein assayed. To convert RLU to ng luciferase a standard curve was generated with QuantiLum Recombinant Luciferase (Promega).
The FLuc mRNA (L-6107) from Trilink Biotechnologies will express a luciferase protein, originally isolated from the firefly, Photinus pyralwas. FLuc was commonly used in mammalian cell culture to measure both gene expression and cell viability. It emits bioluminescence in the presence of the substrate, luciferin. This capped and polyadenylated mRNA was fully substituted with 5-methylcytidine and pseudouridine.
Compounds of structure (I) were formulated using the following molar ratio: 47.5% cationic lipid/10% dwastearoylphosphatidylcholine (DSPC)/40.8% Cholesterol/1.7% PEG lipid (“PEG-DMA” 2-[2-(ω-methoxy(polyethyleneglycol2000)ethoxy]-N,N-ditetradecylacetamide). Relative activity was determined by measuring luciferase expression in the liver 4 hours following administration via tail vein injection as described in Example 1. The activity was compared at a dose of 0.3 and 1.0 mg mRNA/kg and expressed as ng luciferase/g liver measured 4 hours after administration, as described in Example 1.
The cationic lipids shown in Table 2 have previously been tested with nucleic acids. For comparative purposes, these lipids were also used to formulate lipid nanoparticles containing the FLuc mRNA (L-6107) using an in line mixing method, as described in Example 1 and in PCT/US10/22614, which is hereby incorporated by reference in its entirety. […]

Setting [4] is: Table 3, lipid formulated in LNP, TNS assay.

`CCCCCCCCC(CCCCCC)COC(=O)CCCCCCCN(CCCCCCCC(=O)OCC(CCCCCC)CCCCCCCC)CCCCOCC(O)C(O)COCCCCN(CCCCCCCC(=O)OCC(CCCCCC)CCCCCCCC)CCCCCCCC(=O)OCC(CCCCCC)CCCCCCCC` (stereo not shown) [Compound 1] returned a pKa in data set [1] (setting [4]) of 6.18. Besides, the “Liver Luc (ng luc/g liver), dosed at 0.5 mg/kg” value in data set [2] was 174 ± 43* ng luc/g liver.
The molecule `CCCCCCCCC(CCCCCC)COC(=O)CCCCCN(CCCCCC(=O)OCC(CCCCCC)CCCCCCCC)CCCOCCOCCOCCCN(CCCCCC(=O)OCC(CCCCCC)CCCCCCCC)CCCCCC(=O)OCC(CCCCCC)CCCCCCCC` (stereo not shown) [Compound 3] gave a pKa in data set [1] (setting [4]) of 5.3. In addition, in data set [3], the “Liver Luc @ 0.3 mg/kg (ng luc/g liver)” value was found to be 33 ± 9 ng luc/g liver and the “Liver Luc @ 1.0 mg/kg (ng luc/g liver)” value was 99 ± 41 ng luc/g liver.
As for `CCCCCCCCC(CCCCCC)COC(=O)CCCCCN(CCCCCC(=O)OCC(CCCCCC)CCCCCCCC)CCCOCC(O)C(O)COCCCN(CCCCCC(=O)OCC(CCCCCC)CCCCCCCC)CCCCCC(=O)OCC(CCCCCC)CCCCCCCC` (stereo not shown) [Compound 2], the pKa in data set [1] amounted to 6.14. Also, the “Relative activity in the luciferase assay relative to MC3” value in data set [3] (luciferase expression in liver 4 hours after tail vein injection, 47.5/10/40.8/1.7 formulation with PEG-DMA) is listed as 4.4. In data set [3], the “Liver Luc @ 0.3 mg/kg (ng luc/g liver)” value stood at 1225 ± 159 ng luc/g liver and the “Liver Luc @ 1.0 mg/kg (ng luc/g liver)” value is listed as 4876 ± 1273 ng luc/g liver.
In data set [1] (setting [4]), `CCCCCCCCC(CCCCCC)COC(=O)CCCCCN(CCCCCC(=O)OCC(CCCCCC)CCCCCCCC)CCCN(C)CCCN(CCCCCC(=O)OCC(CCCCCC)CCCCCCCC)CCCCCC(=O)OCC(CCCCCC)CCCCCCCC` (stereo not shown) [Compound 6] yielded a pKa of 5.81. In data set [3], the “Liver Luc @ 0.3 mg/kg (ng luc/g liver)” value came out at 92 ± 13 ng luc/g liver and the “Liver Luc @ 1.0 mg/kg (ng luc/g liver)” value was 169 ± 46 ng luc/g liver.
In data set [1] (setting [4]), `CCCCCCCCC(CCCCCC)COC(=O)CCCCCC(CCCCCC(=O)OCC(CCCCCC)CCCCCCCC)NCCCOCCOCCOCCCN(CCCCCC(=O)OCC(CCCCCC)CCCCCCCC)CCCCCC(=O)OCC(CCCCCC)CCCCCCCC` (stereo not shown) [Compound 8] had a pKa of 6.53. The “Liver Luc (ng luc/g liver), dosed at 0.5 mg/kg” value in data set [2] is recorded as 479 ± 163* ng luc/g liver.
For `CCCCCCCCC(CCCCCC)C(=O)OCCCCCCCCCC(CCCCCCCCCOC(=O)C(CCCCCC)CCCCCCCC)OC(=O)CCCCNCCCCN(C)CCCCC(=O)OC(CCCCCCCCCOC(=O)C(CCCCCC)CCCCCCCC)CCCCCCCCCOC(=O)C(CCCCCC)CCCCCCCC` (stereo not shown) [Compound 5], the pKa in data set [1] was found to be 4.24.
`CCCCCCCCC(CCCCCC)COC(=O)CCCCCC(CCCCCC(=O)OCC(CCCCCC)CCCCCCCC)NCCCOCCOCCOCCCNC(CCCCCC(=O)OCC(CCCCCC)CCCCCCCC)CCCCCC(=O)OCC(CCCCCC)CCCCCCCC` (stereo not shown) [Compound 4] displayed a pKa in data set [1] of 7.2.
`CCCCCCC(CCCC)COC(=O)CCCCCN(CCCCCC(=O)OCC(CCCC)CCCCCC)CCCN(C)CCCN(CCCCCC(=O)OCC(CCCC)CCCCCC)CCCCCC(=O)OCC(CCCC)CCCCCC` (stereo not shown) [Compound 7] yielded a pKa in data set [1] (setting [4]) of 5.91. Besides, in data set [3], the “Liver Luc @ 0.3 mg/kg (ng luc/g liver)” value is reported as 590 ± 98 ng luc/g liver and the “Liver Luc @ 1.0 mg/kg (ng luc/g liver)” value is on record as 2473 ± 443 ng luc/g liver.
